Experimental data taken from paper PMC3463238 (Toxicology letters, 2012).
Like-named read-outs stand apart in the source and are kept apart here. Marks after values point to notes of the source that are not given here.

How the values were obtained:
[1] = Reactivity of styrene oxide and halogenated styrene oxides to cysteamine; assay type: physicochemical; details: oxide 1.0 μM, cysteamine 100 μM, phosphate buffer, 37 °C
[2] = test system: CYP2E1 transgenic cells (h2E1); details: for Decrease in cell viability relative to vehicle group: 24 h, 100 μM
[3] = Observed stability of the compound; assay type: physicochemical
[4] = in vitro; details: human
[5] = test system: cellular proteins of wild-type cells; details: human, 24 h, 100 μM
[6] = test system: cellular proteins of CYP2E1 cells; details: human, 24 h, 100 μM
[7] = molecular target: recombinant human CYP2E1 (Homo sapiens, UniProt P05181); details: pH 7.4
[8] = in vitro; details: human; remark: listed apart in the source
[9] = test system: cellular proteins of CYP2E1 cells; assay: Cellular protein covalent binding of 14C-labeled styrenes in CYP2E1 cells; details: 14C-labeled compound 100 μM, 24 h
[10] = Cytotoxicity in CYP2E1 transgenic cells; details: human
[11] = Cellular GSH contents in CYP2E1 cells; details: human

Chain of recombinant human CYP2E1 (P05181 whole entry): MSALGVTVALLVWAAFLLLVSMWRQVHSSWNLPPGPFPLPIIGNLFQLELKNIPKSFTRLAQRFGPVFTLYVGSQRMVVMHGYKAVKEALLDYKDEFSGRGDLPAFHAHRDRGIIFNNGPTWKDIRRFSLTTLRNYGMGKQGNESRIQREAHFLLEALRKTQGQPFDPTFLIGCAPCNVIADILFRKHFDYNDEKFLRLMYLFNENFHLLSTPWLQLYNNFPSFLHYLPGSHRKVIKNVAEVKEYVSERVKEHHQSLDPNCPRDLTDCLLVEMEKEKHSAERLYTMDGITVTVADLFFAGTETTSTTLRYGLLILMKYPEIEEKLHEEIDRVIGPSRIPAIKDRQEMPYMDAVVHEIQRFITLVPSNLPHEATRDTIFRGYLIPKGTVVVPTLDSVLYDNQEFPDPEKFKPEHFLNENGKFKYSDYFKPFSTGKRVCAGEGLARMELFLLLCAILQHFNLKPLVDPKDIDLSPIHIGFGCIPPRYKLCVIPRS

SMILES	Rate constant for production of the cysteamine adducts [1]	activity at 3 h, 100 µM [4]	Bioactivation index (k × Vmax/Km) [7]	viability at 24 h, 100 µM [8]	further results
C=Cc1ccc(I)cc1 [4-iodostyrene]	–	–	–	–	Toxicity to CYP2E1 cells compared with another compound ([2]; human): more toxic than 4-bromostyrene; Stability [3]: unstableness
C=Cc1ccc(Br)cc1 [Br-ST, 4-bromostyrene]	–	61 ± 6.5%	31.9 ± 3.48 ^c	39.6 ± 4.1%	Fold lower radioactivity bound to proteins in wild-type cells than CYP2E1 cells [5]: 5 fold; Binding load (radioactivity bound to cellular proteins) [6]: 6.17 nmol/mg protein; Decrease in cell viability relative to vehicle group ([2]; human): 39.6%
C=Cc1ccc(Cl)cc1 [Cl-ST, 4-chlorostyrene]	–	71.2 ± 5.8%	15.8 ± 2.03 ^b	57.7 ± 9.9%	Decrease in cell viability relative to vehicle group ([2]; human): 57.7%
C=Cc1ccc(F)cc1 [F-ST, 4-fluorostyrene]	–	82.4 ± 2.2%	10.4 ± 0.64 ^a	78.8 ± 3.2%	Binding load (radioactivity bound to cellular proteins) [6]: 2.27 nmol/mg protein; Toxicity to CYP2E1 cells compared with another compound [2]: little difference in toxicity
C=Cc1ccccc1 [ST, Styrene]	–	–	–	–	Binding load (radioactivity bound to cellular proteins) [9]: 2.02 nmol/mg protein; viability at 24 h, 100 µM [10]: 80 ± 3%; activity at 3 h, 100 µM [11]: 83.7 ± 2.1%
c1ccc(C2CO2)cc1 (stereo not drawn) [styrene oxide]	13.4 ± 1.88 min⁻¹	–	–	–	–

Further lines, with some results ahead:

Rate constant for production of the cysteamine adducts [1]	SMILES	activity at 3 h, 100 µM [4]	Bioactivation index (k × Vmax/Km) [7]	viability at 24 h, 100 µM [8]	further results
29.3 ± 3.19 min⁻¹	Brc1ccc(C2CO2)cc1 (stereo not drawn) [4-bromostyrene oxide]	–	–	–	–
16.1 ± 2.08 min⁻¹	Clc1ccc(C2CO2)cc1 (stereo not drawn) [4-chlorostyrene oxide]	–	–	–	–
15.7 ± 1.57 min⁻¹	Fc1ccc(C2CO2)cc1 (stereo not drawn) [4-fluorostyrene oxide]	–	–	–	–
